Source: US20190029252A1, “Use of Herbicide-tolerant Protein” (BEIJING DABEINONG TECHNOLOGY GROUP CO., LTD., priority 2016, published 2019)

Tests used:
Format in all cases: in vivo
[1] = system: Gm chloroplastic ALT-1-01 soybean plants; assay: Glyphosate tolerance of soybean plants, herbicide damage rate; conditions: 840 g ae/ha (1-fold field concentration), 14 DAT
Source text: (§1) The herbicide tolerance effects of Gm cytoplasmic ALT-1-01 soybean plants, Gm chloroplastic ALT-1-01 soybean plants, Gm cytoplasmic ALT-2-01 soybean plants, Gm chloroplastic ALT-2-01 soybean plants, Gm cytoplasmic ALT-3-01 soybean plants, Gm chloroplastic ALT-3-01 soybean plants and wild-type soybean plants on glyphosate were detected (at seedling stage), respectively.
(§2) 2 strains from Gm cytoplasmic ALT-1-01 soybean plants, Gm chloroplastic ALT-1-01 soybean plants, Gm cytoplasmic ALT-2-01 soybean plants, Gm chloroplastic ALT-2-01 soybean plants, Gm cytoplasmic ALT-3-01 soybean plants, Gm chloroplastic ALT-3-01 soybean plants and wild-type soybean plants were respectively taken each, and 10-15 plants were selected from each strain and tested. The plants above were sprayed with glyphosate (840 g ae/ha, 1-fold field concentration) and a blank solvent (water). The herbicide damage rate was measured for each plant according to the phytotoxicity symptoms 14 days after spraying (14 DAT): herbicide damage rate (%)=Σ(number of damaged plants at the same level× level number)/(total number of plants×highest level).

[2] = system: wild-type soybean plants (CK1); assay: as above; conditions: 840 g ae/ha (1-fold field concentration), 14 DAT
Source text: as §1, §2

[3] = system: Gm cytoplasmic ALT-2-01 soybean plants; assay: as above; conditions: 840 g ae/ha (1-fold field concentration), 14 DAT
Source text: as §1, §2

[4] = system: Gm chloroplastic ALT-2-01 soybean plants; assay: as above; conditions: 840 g ae/ha (1-fold field concentration), 14 DAT
Source text: as §1, §2

[5] = system: Gm chloroplastic ALT-3-01 soybean plants; assay: as above; conditions: 840 g ae/ha (1-fold field concentration), 14 DAT
Source text: as §1, §2

[6] = system: Gm cytoplasmic ALT-1-01 soybean plants; assay: as above; conditions: 840 g ae/ha (1-fold field concentration), 14 DAT
Source text: as §1, §2

[7] = system: Gm cytoplasmic ALT-3-01 soybean plants; assay: as above; conditions: 840 g ae/ha (1-fold field concentration), 14 DAT
Source text: as §1, §2

[8] = system: wild-type Arabidopsis thaliana plants; assay: Herbicide tolerance of Arabidopsis thaliana plants, sprayed, resistance classes counted 14 days after spraying; conditions: wild-type; sprayed at 1-fold field concentration; 14 days after spraying
Source text: (§3) T1 transformants were initially selected from the background of untransformed seeds using a glufosinate selection scheme. About 40000 T1 seeds were screened, and 380 T1 positive transformants (PAT gene) were identified with a transformation efficiency of about 0.95%. The plants that were transformed with the recombinant expression vector DBN100632 were Arabidopsis thaliana plants having an ALT-1-01 nucleotide sequence located in the cytoplasm introduced (At cytoplasmic ALT-1-01), and the plants that were transformed with the recombinant expression vector DBN100631 were Arabidopsis thaliana plants having an ALT-1-01 nucleotide sequence located in the chloroplast introduced (At chloroplastic ALT-1-01); the plants that were transformed with the recombinant expression vector DBN100634 were Arabidopsis thaliana plants having an ALT-2-01 nucleotide sequence located in the cytoplasm introduced (At cytoplasmic ALT-2-01), and the plants that were transformed with the recombinant expression vector DBN100633 were Arabidopsis thaliana plants having an ALT-2-01 nucleotide sequence located in the chloroplast introduced (At chloroplastic ALT-2-01); and the plants that were transformed with the recombinant expression vector DBN100636 were Arabidopsis thaliana plants having an ALT-3-01 nucleotide sequence located in the cytoplasm introduced (At cytoplasmic ALT-3-01), and the plants that were transformed with the recombinant expression vector DBN100635 were Arabidopsis thaliana plants having an ALT-3-01 nucleotide sequence located in the chloroplast introduced (At chloroplastic ALT-3-01).
(§4) Plants were counted for the resistance situations 14 days after spraying: those having a consistent growth status with the blank solvent (water) group after 14 days were classified as highly resistant plants, those having a bolting height less than ½ of that of the blank solvent (water) group after 14 days were classified as moderately resistant plants, those still not capable of bolting after 14 days were classified as poorly resistant plants, and those dead after 14 days were classified as non-resistant plants. Since each Arabidopsis thaliana T1 plant was an independent transformation event, a significant difference in individual T1 responses could be expected at a given dose.
as §4, with “situation” for “situations”

[9] = system: At cytoplasmic ALT-1-01 T1 plants; assay: Herbicide tolerance of Arabidopsis thaliana T1 plants, sprayed, resistance classes counted 14 days after spraying; conditions: sprayed at 1-fold field concentration
Source text: as §3, §4
as §4, with “situation” for “situations”

[10] = system: At cytoplasmic ALT-2-01 T1 plants; assay: as above; conditions: sprayed at 1-fold field concentration
Source text: as §3, §4
as §4, with “situation” for “situations”

[11] = system: At chloroplastic ALT-2-01 T1 plants; assay: as above; conditions: sprayed at 1-fold field concentration
Source text: as §3, §4
as §4, with “situation” for “situations”

[12] = system: At cytoplasmic ALT-3-01 T1 plants; assay: as above; conditions: sprayed at 1-fold field concentration
Source text: as §3, §4
as §4, with “situation” for “situations”

[13] = system: At chloroplastic ALT-1-01 T1 plants; assay: as above; conditions: sprayed at 1-fold field concentration
Source text: as §3, §4
as §4, with “situation” for “situations”

[14] = system: At chloroplastic ALT-3-01 T1 plants; assay: as above; conditions: sprayed at 1-fold field concentration
Source text: as §3, §4
as §4, with “situation” for “situations”

[15] = system: transformed Arabidopsis thaliana T1 plants (ALT-1, ALT-2 and ALT-3); assay: Herbicide tolerance of transgenic Arabidopsis thaliana T1 plants, overall conclusion; conditions: all transformed Arabidopsis thaliana T1 plants; 1-fold field concentration
Source text: as §4
as §4, with “situation” for “situations”

O=C(O)CNCP(=O)(O)O [glyphosate, N-phosphonomethylglycine]
glyphosate herbicide damage rate [1]: ~0% | glyphosate herbicide damage rate [2]: not less than 90% | glyphosate herbicide damage rate [3]: ~0% | glyphosate herbicide damage rate [4]: ~0% | glyphosate herbicide damage rate [5]: ~0% | glyphosate herbicide damage rate [6]: ~0% | glyphosate herbicide damage rate [7]: ~0%

COC(=O)c1ccc(I)cc1S(=O)(=O)NC(=O)Nc1nc(C)nc(OC)n1 [iodosulfuron-methyl]
Highly resistant (number of plants) [8]: 0 | Moderately resistant (number of plants) [8]: 0 | Non-resistant (number of plants) [8]: 29 | Poorly resistant (number of plants) [8]: 0 | Highly resistant (number of plants) [9]: 0 | Moderately resistant (number of plants) [9]: 0 | Non-resistant (number of plants) [9]: 29 | Poorly resistant (number of plants) [9]: 0 | Highly resistant (number of plants) [10]: 0 | Moderately resistant (number of plants) [10]: 0 | Non-resistant (number of plants) [10]: 30 | Poorly resistant (number of plants) [10]: 0 | Highly resistant (number of plants) [11]: 0 | Moderately resistant (number of plants) [11]: 0 | Non-resistant (number of plants) [11]: 31 | Poorly resistant (number of plants) [11]: 0 | Highly resistant (number of plants) [12]: 0 | Moderately resistant (number of plants) [12]: 0 | Non-resistant (number of plants) [12]: 30 | Poorly resistant (number of plants) [12]: 0 | Highly resistant (number of plants) [13]: 0 | Moderately resistant (number of plants) [13]: 0 | Non-resistant (number of plants) [13]: 30 | Poorly resistant (number of plants) [13]: 0 | Highly resistant (number of plants) [14]: 0 | Moderately resistant (number of plants) [14]: 0 | Non-resistant (number of plants) [14]: 32 | Poorly resistant (number of plants) [14]: 0 | ability of the transformed plants to degrade the herbicide (in words) [15]: did not exhibit the ability to degrade

COC(=O)c1ccc(CNS(C)(=O)=O)cc1S(=O)(=O)NC(=O)Nc1nc(OC)cc(OC)n1 [mesosulfuron]
Highly resistant (number of plants) [8]: 0 | Moderately resistant (number of plants) [8]: 0 | Non-resistant (number of plants) [8]: 28 | Poorly resistant (number of plants) [8]: 0 | Highly resistant (number of plants) [9]: 0 | Moderately resistant (number of plants) [9]: 0 | Non-resistant (number of plants) [9]: 29 | Poorly resistant (number of plants) [9]: 0 | Highly resistant (number of plants) [10]: 0 | Moderately resistant (number of plants) [10]: 0 | Non-resistant (number of plants) [10]: 32 | Poorly resistant (number of plants) [10]: 0 | Highly resistant (number of plants) [11]: 0 | Moderately resistant (number of plants) [11]: 0 | Non-resistant (number of plants) [11]: 30 | Poorly resistant (number of plants) [11]: 0 | Highly resistant (number of plants) [12]: 0 | Moderately resistant (number of plants) [12]: 0 | Non-resistant (number of plants) [12]: 30 | Poorly resistant (number of plants) [12]: 0 | Highly resistant (number of plants) [13]: 0 | Moderately resistant (number of plants) [13]: 0 | Non-resistant (number of plants) [13]: 32 | Poorly resistant (number of plants) [13]: 0 | Highly resistant (number of plants) [14]: 0 | Moderately resistant (number of plants) [14]: 0 | Non-resistant (number of plants) [14]: 32 | Poorly resistant (number of plants) [14]: 0 | ability of the transformed plants to degrade the herbicide (in words) [15]: did not exhibit the ability to degrade

Cc1cc(C)nc(NC(=O)NS(=O)(=O)c2ccccc2C(=O)OC2COC2)n1 [oxasulfuron]
Highly resistant (number of plants) [8]: 0 | Moderately resistant (number of plants) [8]: 0 | Non-resistant (number of plants) [8]: 28 | Poorly resistant (number of plants) [8]: 0 | Highly resistant (number of plants) [9]: 0 | Moderately resistant (number of plants) [9]: 0 | Non-resistant (number of plants) [9]: 28 | Poorly resistant (number of plants) [9]: 0 | Highly resistant (number of plants) [10]: 0 | Moderately resistant (number of plants) [10]: 0 | Non-resistant (number of plants) [10]: 30 | Poorly resistant (number of plants) [10]: 0 | Highly resistant (number of plants) [11]: 0 | Moderately resistant (number of plants) [11]: 0 | Non-resistant (number of plants) [11]: 30 | Poorly resistant (number of plants) [11]: 0 | Highly resistant (number of plants) [12]: 0 | Moderately resistant (number of plants) [12]: 0 | Non-resistant (number of plants) [12]: 30 | Poorly resistant (number of plants) [12]: 0 | Highly resistant (number of plants) [13]: 0 | Moderately resistant (number of plants) [13]: 0 | Non-resistant (number of plants) [13]: 30 | Poorly resistant (number of plants) [13]: 0 | Highly resistant (number of plants) [14]: 0 | Moderately resistant (number of plants) [14]: 0 | Non-resistant (number of plants) [14]: 31 | Poorly resistant (number of plants) [14]: 0 | ability of the transformed plants to degrade the herbicide (in words) [15]: did not exhibit the ability to degrade
